The subject of series [1] is sperm. Kind of series: Modified Sander-Cramer assay, 1:1 semen:compound, with recovery. In kind it is cell-based, human. The note with it: for MEC: 30 sec exposure, 1:1 dilution ratio (50 μL semen + 50 μL compound). Here is the method: (§1) Semen samples were collected from consented healthy male donors by masturbation after 2–5 days of sexual abstinence. The protocol was approved by the Eastern Virginia Medical School’s Institutional Review Board (IRB) at the Macon & Joan Brock Virginia Health Sciences, Old Dominion University. Semen analysis was performed according to WHO guidelines.[44]
(§2) The highest spermicidal dilution and minimum effective concentration (MEC) for the test compounds were determined using the modified Sander-Cramer (SCr) assay.[45] […] Briefly, 250 μL of test compounds were incubated with 50 μL of semen for 30 sec at room temperature (RT). During the incubation period, each sample was examined under a phase-contrast microscope (E600 Nikon Eclipse, Melville, MY) for the presence of motile sperm. To evaluate the protective effect of seminal plasma, 50 μL of test compounds were incubated with 50 μL of semen (1:1 dilution ratio) for 30 sec at room temperature (RT). If any motile sperm (i.e. progressive, twitching, etc.) were found within 30 seconds, then the dilution was recorded as ‘Failed’. If no motile sperm were found, the dilution was considered as ‘Pass.’ The results from 4–6 independent experiments were combined, and the highest spermicidal dilution and MEC were calculated as MEC=initialconcentration/highestspermicidaldilution and presented as Mean ± SE.
(§3) To see whether the sperm immobilizing effect of the compounds was reversible, 1 mL of warmed Ham’s F-10 media (Millipore Sigma, MA, USA) supplemented with 1% Human Serum Albumin (HSA) (Millipore Sigma, MA, USA) was added to each sample to further dilute the compound concentration and assess the reversibility of the sperm immobilization effect. Sperm were incubated for an additional 60 mins at 37°C. After this sperm “recovery” period, motility was re-evaluated with manual counting and calculated as: %SpermMotility=TotalMotileSperm/TotalMotile+immobileSperm*100.

The nature of series [2]: Lactic acid titration of simulated vaginal and seminal fluids (pH). The note with it: for pH reached: same LA concentration (24 mM). The class given is physicochemical. Here is the method:
The amount of lactic acid necessary for contraceptive efficacy was estimated by measuring solution pH. Simulated vaginal and seminal fluids, with physiologically-representative buffer capacities, were prepared as previously described by Rastogi et al.[43] Simulated vaginal fluid (SVF) was mixed with seminal fluid simulant (SFS) in a 1:5 ratio to represent potential fluid volumes during intercourse.

For series [3], the system named is sperm. Briefly: Time-response sperm motility assay (single compounds, 1:1 dilution). The class given is cell-based, human. How it is done:
A time-response experiment was conducted to assess the impact of contraceptive compounds on sperm motility at various time points following incubation. Sperm samples were incubated with varying concentrations of LA or GML (1:1 dilution ratio) for 30 secs, 10, 30, 60, and 120 minutes. Concentrations of GML were selected based on the critical micelle concentration (CMC) of 16.4 μg/mL.[43] Each sample was examined under a phase-contrast microscope, and sperm motility was assessed manually.

The test system of series [4] is sperm. Briefly: Sander-Cramer assay, 1:6 semen:compound, with recovery. The note with it: for MEC after recovery ± SD: 1:6 semen:compound, diluted with 1 mL inhibitor-free media, 60 mins; for MEC ± SD: 30 sec exposure, 1:6 dilution ratio (50 μL semen + 250 μL compound). The class given is cell-based, human. Here is the method: as §1, §2, §3
On the set-up of series [5]: method as in PMID 26585883. To be noted: cited from earlier work.
The nature of series [6]: Saturation solubility in relevant solvents and release media. The note with it: thermodynamic from solid, read-out: GML Saturation Solubility. The class given is physicochemical. How it is done:
Approximately 20 mg samples of GML were weighed into microcentrifuge tubes and 100 μL of solvent (n=3) was subsequently added. Samples were vortexed and assessed visually to determine dissolution progress. As dissolution occurred, an additional 20 mg of GML was added until complete saturation was reached. All samples were then stored, protected from light, overnight to confirm complete saturation. […] The supernatant samples were diluted with MeOH and drug concentration was subsequently analyzed via LC-MS as described above.

In series [7] the test system is Human vaginal epithelial cells, VK2/E6E7. Kind of series: In vitro cytotoxicity, MTS assay. In kind it is cell-based. To be noted: 24 hrs. Here is the method: Human vaginal epithelial cells, VK2/E6E7 (ATCC® CRL-2616™), were used to evaluate GML’s effect on cell viability. VK2 cells were propagated in Gibco™ Keratinocyte SFM (1×) media (Cat# 17005042, ThermoFisher Scientific, MA, USA) supplemented with 0.1 ng/mL epidermal growth factor, 50 μg/mL bovine pituitary extract, 0.4 mM CaCl2, and 1% penicillin and streptomycin (P/S; Cat# 15140–122, Gibco). Cells were incubated with varying concentrations of GML for 24 hrs at 37°C. Cell viability was assessed using CellTiter 96® AQueous Non-Radioactive Cell Proliferation (MTS) Assay (Cat# G5421, Promega, WI, USA) per manufacturer instructions.
For orientation: Formazan colour is commonly taken as a measure of viable cells.

Converted amounts (≈) assume the structure as drawn. “And” between values parts separate entries of the source, which are not always exact repeats. Equal entries are not always repeated. Where two headings read alike, the source gives them in different places.

With `CC(O)C(=O)O` (stereo not drawn) [LA, lactic acid], the MEC is 18 mg/mL in series [1]; 10 mg/mL in series [3] (following 10 mins, persisting during 120 mins, 1:1 dilution ratio); 20 mg/mL in series [3] (within 30 sec, 1:1 dilution ratio). Also, in series [2] (1:5 mixture of SVF and SFS), the “LA concentration at which mixture pH reached 4.2” value was 24 mM and 2.16 mg/mL. Moreover, the pH reached in series [2] (SSF alone) is recorded as 3.37; in series [2] (SVF alone), 3.67. For the same compound, in series [3] (summary statement), the “Concentration inducing immediate sperm immobilization” value is 10 mg/mL. In series [4], the “MEC after recovery ± SD” value was 9 mg/mL. In addition, in series [4], the “MEC ± SD” value turned out to be 9 mg/mL.

As for `CCCCCCCCCCCC(=O)OCC(O)CO` (stereo not drawn) [GML, glycerol monolaurate], the “Critical micelle concentration (CMC)” value in series [5] was 16.4 µg/mL. In series [1] (1:1 semen:compound, diluted with 1 mL inhibitor-free media, 60 mins), the MEC after recovery was 1.7 ± 0.9 mg/mL. In addition, the MEC in series [1] amounted to 55 ± 5.8 mg/mL. Moreover, the solubility at 24 h in series [6] (acetone, organic solvent or mixture) was 255.2 ± 1.74 mg/mL (≈ 930 mM); in series [6] (ethanol, organic solvent or mixture, EtOH), 271 ± 18 mg/mL (≈ 988 mM); in series [6] (methanol, organic solvent or mixture, MeOH) it was 278 ± 45.2 mg/mL (≈ 1010 mM); in series [6] (simulated vaginal fluid with 2% Solutol, pH 4.2, aqueous with cosolvent or surfactant or cyclodextrin, SVF (w/ 2% solutol)) it was 3.25 ± 0.45 mg/mL (≈ 11.8 mM); in series [6] (water), 4.48 ± 0.12 mg/mL (≈ 16.3 mM). The Concentrations considered non-cytotoxic in series [7] is not above 20 µg/mL. Besides, the “Concentrations significantly decreasing cell viability” value in series [7] was not below 200 µg/mL. In addition, the “Time to immobilize all sperm” value in series [3] (at 20 mg/mL, 1:1 dilution ratio) was found to be 10 min. Further, in series [3] (incubation 30–120 mins, 1:1 dilution ratio), the “Concentration completely immobilizing sperm” value worked out at 2 mg/mL. In addition, in series [4] (0.9% saline), the “Concentration above which compound visibly precipitated” value is “above 0.2 mg/mL”. In addition, the “MEC after recovery ± SD” value in series [4] is 1.7 ± 0.9 mg/mL and 1.7 ± 0.9^γ mg/mL. Also, in series [4], the “MEC ± SD” value was 45 ± 5.5 mg/mL.

Values taken from publication PMC12668138, “First-in-line 3D-printed intravaginal ring for nonhormonal contraception” (Research Square, 2025).
